Data: patent publication US20250188032A1, “NITROGEN-CONTAINING HETEROCYCLIC COMPOUNDS AND USES THEREOF” (BNH RESEARCH CO., LTD., priority 2022, published 2025)

How the values were obtained:
293T cells = experiment: Cytotoxicity test (CCK-8 cell viability) in 293T cells; type: cell-based, human; details: 24 hours co-incubation, 293T cell line, % of control
Description: Human undifferentiated neuroblastoma cell line SH-SY5Y and human embryonic kidney cell line (HEK)-293T were purchased from Korean Cell Line Bank (Korea) and Takara (Japan), respectively. Cells were grown in HyClone Minimal Essential Medium (MEM) and Dulbecco's Modified Eagle Medium (DMEM), respectively, supplemented with 10% (v/v) fetal bovine serum (FBS), penicillin (100 U/mL), and streptomycin ([…]). Cells were maintained in a humidified atmosphere of 95% air and 5% CO2 at 37° C. Cells were passaged 10 times at maximum. Cells were dissociated using 0.05% trypsin-EDTA solution and the cells were seeded in new culture dishes for maintenance.
To examine the cytotoxicity of compounds described herein in human cell lines, SH-SY5Y and 293T cells were used. Approximately 8,000 cells (for 293T) and 15,000 cells (for SH-SY5Y) were plated per well of a 96-well plate (SPL Life Sciences Co., Ltd., Pocheon, Korea). After incubating at 37° C. for 24 hours in a humidified atmosphere containing 5% CO2, the culture medium was replaced by a series of concentrations of test compounds diluted in the corresponding culture medium. The time of co-incubation was 24 hours and six replicates were made for each measurement. Finally, 10 μL of CCK-8 reagent (Dojindo Laboratories, Rockville, MD) was added to each well, and after incubation at 37° C. for 3 minutes, the OD at 450 nm was measured using a multifunction microplate reader (Tecan Infinite M200 Pro). These measurements were compared to that of a control and expressed as a percentage of the control to calculate cell viability. The IC50 value was calculated using SPSS software. To do this, the absorbance of the blank wells with only growth medium is subtracted from the values or the wells with cells. The readout value of background (vehicle) was set as a 100% viability, and then the percent viability for each test solution was calculated.
Cell viability (%)=[(As-Ab)/(Ac-Ab)]×100
The data was presented as the mean value and standard error of the mean (S.E.M.). Statistical analysis was performed with the one-way ANOVA with Tukey's post hoc test (GraphPad Prism 5 software package, version 5.02, GraphPad Software Inc. USA). Significance was accepted at p<0.05.

GluN2B = experiment: Western blot of GluN2B protein in cultured fetal cortical cells; type: cell-based, mice; details: for GluN2B expression, Western blot results, Mean: relative value, vehicle set to 1, treated for 24 hours, N 3 or more; for Effect on GluN2B expression compared to the vehicle: comment on Table 6
Description: The amount of GluN2B reacted with the compound of the present disclosure was measured using Western blot. The fetal cerebral cortex was extracted from mice at 17 days of gestation, dissociated into single cells, cultured for 13 days, and treated with BnH drugs for 24 hours. The drug-treated cells were subjected to protein lysate preparation using RIPA protein lysis buffer containing protease and phosphatase inhibitors. The protein concentration was determined using a BCA protein assay kit (Pierce Biotechnology) using bovine serum albumin as a standard. Equal amounts of protein (20 μg per lane) were separated by electrophoresis on SDS-polyacrylamide gels at 90 V for 2 hours, then transferred from the SDS-polyacrylamide gel to PVDF membrane at 100 V for 1 hour. Then, primary reaction with GluN2B antibody (ab65783, Abcam) was performed at 4° C. for 1 day, washed three times at 10-minutes intervals with 1×PBT, and secondary reaction was performed with anti-mouse antibody (sc-2357, Santa Cruz) for 1 hour, followed by washing three times at 10-minutes intervals with 1×PBT. Western blotting was performed as described above to confirm GluN2B protein expression. Subsequently, each blot was re-probed using anti-β-actin antibody (sc-47778, Santa Cruz). Housekeeping protein β-actin was detected as a normalization control.
The increase and decrease of BnH12 series were confirmed by setting the vehicle to 1 (N for each group was 3 or more).
Using the experimental procedure described in Example 3, it was determined whether various BnH12 series compounds increase GluN2B expression, and the results are shown in Table 6. These in vitro experimental results are expressed as relative values to the group (vehicle) that was not treated with the compound, with the effect of the group set to 1.

SMILES	Cell viability test results (CCK) 10 uM (293T cells) [%<]	Cell viability test results (CCK) 100 uM (293T cells) [%<]	GluN2B expression, Western blot results, Mean (GluN2B)	Effect on GluN2B expression compared to the vehicle (GluN2B)
C[C@H]1CCCCN1C(=O)Cc1ccc(F)cc1Cl [BnH12005, (S)-2-(2-chloro-4-fluorophenyl)-1-(2-methylpiperidin-1-yl)ethan-1-one]	99	90	1.206	–
C[C@H]1CC[C@@H](C(=O)O)CN1C(=O)CC1CCCCC1 [BnH12006, (3R,6S)-1-(2-cyclohexylacetyl)-6-methylpiperidine-3-carboxylic acid]	99	95	1.238	–
C[C@H]1CC[C@@H](C(=O)O)CN1C(=O)Cc1ccccc1 [BnH12007, (3R,6S)-6-methyl-1-(2-phenylacetyl)piperidine-3-carboxylic acid]	95	95	1.311	–
C[C@H]1CC[C@@H](C(=O)NO)CN1C(=O)Cc1ccc(F)cc1Cl [BnH12009, (3R,6S)-1-(2-(2-chloro-4-fluorophenyl)acetyl)-N-hydroxy-6-methylpiperidine-3-carboxamide]	95	90	1.248	–
C[C@H]1CC[C@@H](C(=O)O)CN1CCc1ccc(F)cc1Cl [BnH12010, (3R,6S)-1-(2-chloro-4-fluorophenethyl)-6-methylpiperidine-3-carboxylic acid]	–	–	1.074	–
O=C(NO)[C@@H]1CCCN1C(=O)Cc1ccc(F)cc1Cl [BnH12016, (S)-1-(2-(2-chloro-4-fluorophenyl)acetyl)-N-hydroxypyrrolidine-2-carboxamide]	99	90	1.311	–
O=C(NO)[C@H]1CCCN1C(=O)c1ccccc1 [BnH12018, (R)-1-benzoyl-N-hydroxypyrrolidine-2-carboxamide]	90	90	1.381	excellent effects
COc1ccc(CC(=O)N2C[C@H](C(=O)O)CC[C@@H]2C)cc1 [BnH12025, (3R,6S)-1-(2-(4-methoxyphenyl)acetyl)-6-methylpiperidine-3-carboxylic acid]	90	80	1.582	excellent effects
C[C@H]1CC[C@@H](C(=O)[O-])CN1C(=O)Cc1cccnc1.[Na+] [BnH12038, Sodium (3R,6S)-6-methyl-1-(2-(pyridin-3-yl)acetyl)piperidine-3-carboxylate]	85	85	1.811	excellent effects
C[C@H]1CC[C@@H](C(=O)[O-])CN1C(=O)Cc1ccccn1.[Na+] [BnH12039, Sodium (3R,6S)-6-methyl-1-(2-(pyridin-2-yl)acetyl)piperidine-3-carboxylate]	95	90	1.103	–
C[C@H]1CCCCN1C(=O)Cc1cccnc1 [BnH12060, (S)-1-(2-methylpiperidin-1-yl)-2-(pyridin-3-yl)ethan-1-one]	99	99	1.469	excellent effects
C[C@@H]1CC[C@H](C(=O)[O-])CN1C(=O)Cc1cccnc1.[Na+] [BnH12068, Sodium (3S,6R)-6-methyl-1-(2-(pyridin-3-yl)acetyl)piperidine-3-carboxylate]	–	–	1.286	–
